Experimental data from patent publication US7156906B2, “Impregnating agent” (Yara International ASA, priority 2001, dated 2007).

Columns and labels:
Dacrymyces stillatus = experiment: growth of the fungi Dacrymyces stillatus at varying concentrations; type: cell-based; conditions: FIG. 2
Text: (§1) Coniophora puteana and […] stillatus, the former is a standard organism in such tests prescribed for use in the European Standard Test EN 113.

Coniophora puteana [1] = experiment: wood block test, % reduction of dry matter after exposure to fungi (EN 113); conditions: 3 months
Method: Coniophora puteana and […] stillatus, the former is a standard organism in such tests prescribed for use in the European Standard Test EN 113. The tests were carried out in the following way: Small blocks of wood of the prescribed size 5 cm×2.5 cm×1.5 cm were numbered and then dried in an oven at 105° C. for 24 hours, cooled and weighed. That represented the dry weight at start. […] The blocks were impregnated with said solution and control blocks with sterile distilled water under vacuum for 10 minutes and then left in the impregnating solution for 1 hour, whereupon they were completely soaked with the impregnating solution. Subsequent to this impregnation the blocks were placed on filter paper for 30 minutes for drainage. The test blocks were then washed three times with distilled water for 2 minutes and then left in distilled water for 24 hours and finally washed three times with distilled water and then placed on filter paper for drainage. Four blocks were used for each concentration of impregnating solution with 2 blocks in each test flask, so-called Kolle flasks. The duration of the tests was 3 months. The blocks were then removed from the flasks and scraped clean of fungi, whereupon they were dried at 105° C. for 24 hours and weighed and percent reduction in dry weight was calculated.

Coniophora puteana [2] = experiment: growth of the fungi Coniophora puteana at varying concentrations; type: cell-based; conditions: FIG. 1
Text: as §1

## O=CO.O=C[O-].[K+] [K-diformate, potassium diformate]
Dacrymyces stillatus
  concentration necessary to achieve complete retardation in growth: at least 0.18 weight %
Coniophora puteana [1]; with subsequent washing of test blocks, FIG. 4
  concentration necessary to obtain required effect on reduction of dry matter: 4.8%
Coniophora puteana [1]; without subsequent washing of test blocks, FIGS. 3 and 7
  concentration giving complete effect on reduction of dry matter: 1.3–2%
Coniophora puteana [2]
  concentration at which it acts as an effective fungicide (growth): at least 0.13 weight %
